{"source": "patent US9718790B2", "about": "“Triazine derivative and pharmaceutical composition having an analgesic activity comprising the same” (SHIONOGI & CO., LTD., priority 2010, dated 2017)", "data": [{"biological_target": "human P2X3 receptor (Homo sapiens (Human), UniProt P56373)", "sequence (P56373 whole entry)": "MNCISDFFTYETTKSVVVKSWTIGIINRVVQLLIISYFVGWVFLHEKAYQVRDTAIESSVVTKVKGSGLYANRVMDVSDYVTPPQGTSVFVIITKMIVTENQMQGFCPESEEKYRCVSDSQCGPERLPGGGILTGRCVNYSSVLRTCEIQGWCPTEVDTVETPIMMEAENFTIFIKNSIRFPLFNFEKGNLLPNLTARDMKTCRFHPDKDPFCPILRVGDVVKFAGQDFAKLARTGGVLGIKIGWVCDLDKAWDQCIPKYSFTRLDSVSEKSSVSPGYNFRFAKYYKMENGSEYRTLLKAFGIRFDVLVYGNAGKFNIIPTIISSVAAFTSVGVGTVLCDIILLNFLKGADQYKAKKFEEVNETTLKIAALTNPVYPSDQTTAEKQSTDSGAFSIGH", "test": "Evaluation of human P2X3 receptor inhibitory activity (Fluo-3 calcium fluorescence, FDSS 3000, ATP stimulation);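 further: stimulus was 50 nM ATP with fluorescence followed for 3 min, and the response per well was peak post-ATP fluorescence divided by the reading at measurement start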", "format": "cell-based", "settings": "C6BU-1 cells stably expressing human P2X3 receptor", "units": {"IC50": "nM"}, "values": [{"smiles": "CCOC(=O)C1(COc2ccc(/N=c3\\[nH]c(=O)n(CC)c(=O)n3Cc3ccc(Cl)cc3)cc2)CC1", "note": "[Compound I-2014]", "IC50": 360}, {"smiles": "Cc1cc(/N=c2\\[nH]c(=O)n([C@H]3CCOC3=O)c(=O)n2Cc2ccc(Cl)cc2)ccc1OC(C)C", "note": "[Compound I-0775]", "IC50": 41}, {"smiles": "CNC(=O)Cn1c(=O)[nH]/c(=N\\c2ccc(Oc3ccc(C)nc3)cc2)n(Cc2ccc(Cl)cc2)c1=O", "note": "[Compound I-1945]", "IC50": 8}, {"smiles": "CCn1c(=O)[nH]/c(=N\\c2ccc(Oc3cccc(C(=O)O)n3)cc2)n(Cc2ccc(Cl)cc2)c1=O", "note": "[Compound I-2095]", "IC50": 5}, {"smiles": "Cc1cc(/N=c2\\[nH]c(=O)n(Cc3cccn(CC(=O)O)c3=O)c(=O)n2Cc2ccc(Cl)cc2)ccc1OC(C)C", "note": "[Compound I-0760]", "IC50": 37}, {"smiles": "COCCOc1ccc(/N=c2\\[nH]c(=O)n(C[C@H](C)C(=O)OC)c(=O)n2Cc2ccc(Cl)cc2)cc1", "note": "[Compound I-0745]", "IC50": 125}, {"smiles": "Cc1cc(/N=c2\\[nH]c(=O)n(C[C@H](O)CO)c(=O)n2Cc2ccc(Cl)cc2)ccc1OC(C)C", "note": "[Compound I-0722]", "IC50": 14}, {"smiles": "CCn1c(=O)[nH]/c(=N\\c2ccc(OCc3noc(C)n3)cc2)n(Cc2ccc(Cl)cc2)c1=O", "note": "[Compound I-2200]", "IC50": 545}, {"smiles": "Cc1ccc(Cn2c(=O)n([C@@H](C)[C@@H](C)C(=O)O)c(=O)[nH]/c2=N\\c2ccc3nc(C)ccc3c2)cc1", "note": "[Compound I-1352]", "IC50": 26}, {"smiles": "CCn1c(=O)[nH]/c(=N\\c2ccc(Oc3cncc(C(=O)O)c3)cc2)n(CC2CCC3(CC2)CC3)c1=O", "note": "[Compound I-2175]", "IC50": 13}, {"smiles": "CCOC(=O)[C@H](CCn1c(=O)[nH]/c(=N\\c2ccc(OC(C)C)c(C)c2)n(Cc2ccc(Cl)cc2)c1=O)NC(=O)OC(C)(C)C", "note": "[Compound I-0717, (S)-1-(4-chlorobenzyl)-3-(3-t-butoxycarbonylamino-3-ethoxycarbonyl-propyl)-6-(3-mehyl-4-isopropoxyphenylimino)-1,3,5-triazinane-2,4-dion]", "IC50": 21}, {"smiles": "CCOC(=O)CCn1c(=O)[nH]/c(=N\\c2ccc(OC(C)C)c(CO)c2)n(Cc2ccc(C)cc2)c1=O", "note": "[Compound I-1424]", "IC50": 35}, {"smiles": "O=C(O)CCn1c(=O)[nH]/c(=N\\c2ccc(Oc3cccc(F)c3)cc2)n(Cc2ccc(Cl)cc2)c1=O", "note": "[Compound I-1951]", "IC50": 25}, {"smiles": "CCOC(=O)CCn1c(=O)[nH]/c(=N\\c2ccc(OC3CCC3)cc2)n(Cc2ccc(Cl)cc2)c1=O", "note": "[Compound I-1283]", "IC50": 4}, {"smiles": "C=Cc1cc(/N=c2\\[nH]c(=O)n(C[C@H](C)C(=O)OC)c(=O)n2Cc2ccc(C)cc2)ccc1OCC", "note": "[Compound I-1191]", "IC50": 22}, {"smiles": "CCCCCc1ccc(/N=c2\\[nH]c(=O)n(C[C@H](C)C(=O)OC)c(=O)n2Cc2ccc(C)cc2)cc1", "note": "[Compound I-1203]", "IC50": 532}, {"smiles": "COC(=O)CCCn1c(=O)[nH]/c(=N\\c2ccc(Oc3ccnc(C)c3)cc2)n(Cc2ccc(Cl)cc2)c1=O", "note": "[Compound I-1396]", "IC50": 4}, {"smiles": "Cc1cc(/N=c2\\[nH]c(=O)n(C[C@H](C)C(=O)O)c(=O)n2Cc2ccccc2)ccc1OC(C)C", "note": "[Compound I-0795]", "IC50": 724}, {"smiles": "Cc1ccc(Oc2ccc(/N=c3\\[nH]c(=O)n(CC(C)(C)C(=O)O)c(=O)n3Cc3ccc(Cl)cc3)cc2)cn1", "note": "[Compound I-1358]", "IC50": 9}, {"smiles": "Cc1ccc(Cn2c(=O)n(C[C@H](C)C(=O)O)c(=O)[nH]/c2=N\\c2ccc(OC3CCCC3)nc2)cc1", "note": "[Compound I-1226]", "IC50": 122}, {"smiles": "CCn1c(=O)[nH]/c(=N\\c2ccc(Oc3nc(C)c(C(=O)O)s3)cc2)n(Cc2ccc(Cl)cc2)c1=O", "note": "[Compound I-2151]", "IC50": 12}, {"smiles": "CCn1c(=O)[nH]/c(=N\\c2ccc(Oc3nccc(OC)n3)cc2)n(Cc2ccc(Cl)cc2)c1=O", "note": "[Compound I-2096]", "IC50": 35}, {"smiles": "CC[C@@H](C)Oc1ccc(/N=c2\\[nH]c(=O)n(C[C@H](C)C(=O)O)c(=O)n2Cc2ccc(Cl)cc2)cc1", "note": "[Compound I-0754]", "IC50": 16}, {"smiles": "COC(=O)[C@@H]1CC(n2c(=O)[nH]/c(=N\\c3ccc(OC(C)C)c(C)c3)n(Cc3ccc(Cl)cc3)c2=O)CN1C(=O)OC(C)(C)C", "note": "(stereo partly drawn) [Compound I-0699]", "IC50": 37}]}, {"biological_target": "human P2X3 receptor (Homo sapiens (Human), UniProt P56373)", "test": "Evaluation of human P2X3 receptor inhibitory activity (Fluo-3 calcium fluorescence, FDSS 3000, ATP stimulation)", "format": "cell-based", "settings": "C6BU-1 cells stably expressing human P2X3 receptor, Fluo-3 fluorescence, FDSS 3000", "units": {"IC50": "nM"}, "values": [{"smiles": "CCc1nc2ccc(/N=c3\\[nH]c(=O)n(CC(C)(C)C(=O)O)c(=O)n3Cc3ccc(Cl)cc3)cc2s1", "note": "[Compound I-1578]", "IC50": 6}, {"smiles": "COC(=O)[C@@H](C)Cn1c(=O)[nH]/c(=N\\c2ccc(OC3CCOCC3)cc2)n(Cc2ccc(C)cc2)c1=O", "note": "[Compound I-1073]", "IC50": 92}, {"smiles": "CCOC(=O)CCn1c(=O)[nH]/c(=N\\c2ccc(OC(C)C)c(F)c2)n(CC2CCC(F)(F)CC2)c1=O", "note": "[Compound I-1884]", "IC50": 296}, {"smiles": "COC(=O)CN1CCC(n2c(=O)[nH]/c(=N\\c3ccc(OC(C)C)c(C)c3)n(Cc3ccc(Cl)cc3)c2=O)CC1", "note": "[Compound I-1639]", "IC50": 14}, {"smiles": "CCC(CC)Oc1ccc(/N=c2\\[nH]c(=O)n(C[C@H](C)C(=O)OC)c(=O)n2Cc2ccc(C)cc2)cc1", "note": "[Compound I-1048]", "IC50": 38}, {"smiles": "Cc1ccc(Cn2c(=O)n([C@@H](C)[C@@H](C)C(=O)O)c(=O)[nH]/c2=N\\c2ccc(OCC3CC3)c(Cl)c2)cc1", "note": "[Compound I-0975]", "IC50": 43}, {"smiles": "CC(C)Cn1c(=O)oc2cc(Nc3nc(=O)n(C(C)C)c(=O)n3Cc3ccc(Cl)cc3)ccc21", "note": "[Compound I-0268]", "IC50": 861}, {"smiles": "COc1ccc2cc(/N=c3\\[nH]c(=O)n([C@@H](C)[C@@H](C)C(=O)O)c(=O)n3Cc3ccc(Cl)cc3)ccc2n1", "note": "[Compound I-1587]", "IC50": 38}, {"smiles": "CCCc1cc2cc(/N=c3\\[nH]c(=O)n([C@@H](C)[C@@H](C)C(=O)OC)c(=O)n3Cc3ccc(Cl)cc3)ccc2o1", "note": "[Compound I-1817]", "IC50": 52}, {"smiles": "O=C(NCC(F)(F)F)c1cc(Oc2ccc(/N=c3\\[nH]c(=O)[nH]c(=O)n3Cc3ccc(Cl)cc3)cc2)ccn1", "note": "[Compound I-1898]", "IC50": 11}, {"smiles": "Cc1ccc(Cn2c(=O)n(C[C@H](C)C(=O)O)c(=O)[nH]/c2=N\\c2ccc(C3CCCCC3)cc2)cc1", "note": "[Compound I-1108]", "IC50": 50}, {"smiles": "COC(=O)[C@@H](C)Cn1c(=O)[nH]/c(=N\\c2ccc(C=C(C)C)c(Cl)c2)n(Cc2ccc(Cl)cc2)c1=O", "note": "[Compound I-0955]", "IC50": 28}, {"smiles": "CCc1oc2ccc(/N=c3\\[nH]c(=O)n(CC4(C)COC(C)(C)OC4)c(=O)n3Cc3ccc(Cl)cc3)cc2c1C", "note": "[Compound I-1636]", "IC50": 9}, {"smiles": "CCCOc1ccc(/N=c2\\[nH]c(=O)n(C[C@@H](CC)C(=O)O)c(=O)n2Cc2ccc(Cl)cc2)cc1", "note": "[Compound I-1039]", "IC50": 83}, {"smiles": "Cc1ccc(Cn2c(=O)n(C[C@H](C)C(=O)O)c(=O)[nH]/c2=N\\c2cccc(C3=CCCC3)c2)cc1", "note": "[Compound I-1115]", "IC50": 516}, {"smiles": "Cc1cc(/N=c2\\[nH]c(=O)n(CC3(CC(=O)O)CC3)c(=O)n2Cc2ccc(Cl)cc2)ccc1OC(C)C", "note": "[Compound I-0982]", "IC50": 17}, {"smiles": "CCC(CC)Oc1ccc(/N=c2\\[nH]c(=O)n(C[C@H](C)C(=O)O)c(=O)n2Cc2ccc(C)cc2)cc1", "note": "[Compound I-1062]", "IC50": 37}, {"smiles": "CCc1nc2ccc(/N=c3\\[nH]c(=O)n(C[C@H](C)NC(C)=O)c(=O)n3Cc3ccc(Cl)cc3)cc2s1", "note": "[Compound I-1665]", "IC50": 7}, {"smiles": "Cc1cc(/N=c2\\[nH]c(=O)n(CC3CN(C(=O)OC(C)(C)C)C3)c(=O)n2Cc2ccc(Cl)cc2)ccc1OC(C)C", "note": "[Compound I-1640]", "IC50": 13}, {"smiles": "Cc1ccc(Cn2c(=O)n(CCC(=O)O)c(=O)[nH]/c2=N\\c2ccc3nc(C(C)C)sc3c2)cc1", "note": "[Compound I-1563]", "IC50": 31}]}, {"biological_target": "human P2X3 receptor (Homo sapiens (Human), UniProt P56373)", "test": "Evaluation of human P2X3 receptor inhibitory activity (Fluo-3 calcium fluorescence, FDSS 3000, ATP stimulation)", "format": "cell-based", "settings": "human P2X3 receptor, Test Example 1", "units": {"IC50": "nM"}, "values": [{"smiles": "CNC(=O)Cn1c(=O)[nH]/c(=N\\c2ccc(Oc3ccon3)c(F)c2)n(Cc2ccc(Cl)cc2)c1=O", "note": "[Compound I-2587]", "IC50": 7}, {"smiles": "Cc1cnc(Oc2ccc(/N=c3\\[nH]c(=O)n(CC(=O)NCCO)c(=O)n3Cc3ccc(Cl)cc3)cc2)s1", "note": "[Compound I-2649]", "IC50": 6}, {"smiles": "Cn1c(=O)[nH]/c(=N\\c2ccc(Oc3cncc(C(N)=O)n3)cc2)n(Cc2ccc(Cl)cc2)c1=O", "note": "[Compound I-2471]", "IC50": 5}, {"smiles": "COC(=O)c1cncc(Oc2ccc(/N=c3\\[nH]c(=O)n(C)c(=O)n3Cc3ccc(C)cc3)cc2)n1", "note": "[Compound I-2468]", "IC50": 20}, {"smiles": "CNC(=O)Cn1c(=O)[nH]/c(=N\\c2ccc(Oc3nc(C)ns3)cc2)n(Cc2ccc(Cl)cc2)c1=O", "note": "[Compound I-2581]", "IC50": 5}, {"smiles": "O=c1[nH]/c(=N\\c2ccc(Oc3nccs3)cc2)n(Cc2ccc(Cl)cc2)c(=O)n1C[C@H](O)CO", "note": "[Compound I-2294]", "IC50": 5}, {"smiles": "CCn1c(=O)[nH]/c(=N\\c2ccc(Oc3ncccn3)cc2)n(Cc2ccc(Cl)cc2)c1=O", "note": "[Compound I-2362]", "IC50": 10}, {"smiles": "Cc1nsc(Oc2ccc(/N=c3\\[nH]c(=O)n(C[C@H](O)CO)c(=O)n3Cc3ccc(Cl)cc3)cc2)n1", "note": "[Compound I-2518]", "IC50": 4}, {"smiles": "CC(C)(O)Cn1c(=O)[nH]/c(=N\\c2ccc(Oc3ccon3)cc2)n(Cc2ccc(Cl)cc2)c1=O", "note": "[Compound I-2672]", "IC50": 11}, {"smiles": "O=C(O)Cn1c(=O)[nH]/c(=N\\c2ccc(Oc3nccs3)cc2)n(Cc2ccc(Cl)cc2)c1=O", "note": "[Compound I-2623]", "IC50": 506}, {"smiles": "O=c1[nH]/c(=N\\c2ccc(Oc3ccon3)cc2)n(Cc2ccc(Cl)cc2)c(=O)n1C(CO)CO", "note": "[Compound I-2542]", "IC50": 186}, {"smiles": "CCn1c(=O)[nH]/c(=N\\c2ccc(Oc3ccc(C#N)cn3)cc2)n(Cc2ccc(Cl)cc2)c1=O", "note": "[Compound I-2306]", "IC50": 2}, {"smiles": "CCn1c(=O)[nH]/c(=N\\c2ccc(Oc3cccc(/C=C/C(=O)OC)c3)cc2)n(Cc2ccc(C)cc2)c1=O", "note": "[Compound I-2327]", "IC50": 8}, {"smiles": "Cc1ccc(Cn2c(=O)n(C)c(=O)[nH]/c2=N\\c2ccc(Oc3cc(C(N)=O)ccn3)cc2)cc1", "note": "[Compound I-2342]", "IC50": 16}, {"smiles": "COc1ccc(Oc2ccc(/N=c3\\[nH]c(=O)n(CCC(=O)O)c(=O)n3Cc3ccc(Cl)cc3)cc2)cn1", "note": "[Compound I-1533]", "IC50": 16}, {"smiles": "CCOC(=O)CCn1c(=O)[nH]/c(=N\\c2ccc3nc(C)sc3c2)n(Cc2ccc(Cl)cc2)c1=O", "note": "[Compound I-1518]", "IC50": 2}, {"smiles": "CC[C@@H](C)Oc1ccc(/N=c2\\[nH]c(=O)n(C[C@H](C)C(=O)O)c(=O)n2Cc2ccc(C)cc2)cc1", "note": "[Compound I-0854]", "IC50": 32}, {"smiles": "O=c1[nH]/c(=N\\c2ccc(Oc3cccc(F)n3)cc2)n(Cc2ccc(Cl)cc2)c(=O)n1CC(CO)CO", "note": "[Compound I-2582]", "IC50": 3}, {"smiles": "NC(=O)Cn1c(=O)[nH]/c(=N\\c2ccc(Oc3ncccn3)cc2)n(Cc2ccc(Cl)cc2)c1=O", "note": "[Compound I-2686]", "IC50": 36}]}]}
